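Five compound concentrations were applied to cells in 96-well plates for 48 hours; endpoints were derived by simple linear interpolation of the resulting dose-response curve. Abbreviation: GI50, concentration required for 50% inhibition of growth.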 The source made the active and inactive calls. Rule as the data show it: active = GI50 up to about 1.1 µM and inactive = higher.
What was measured:
Experiment in all cases: DTP human tumour cell line panel, 48 h
RPMI-8226 = tested on: RPMI-8226
SF-539 = tested on: SF-539
OVCAR-4 = tested on: OVCAR-4
IGROV-1 = tested on: IGROV-1
SNB-75 = tested on: SNB-75
Malme-3M = tested on: Malme-3M
NCI-H23 = tested on: NCI-H23
SN12C = tested on: SN12C
K562 = tested on: K562
HL-60 = tested on: HL-60
SK-OV-3 = tested on: SK-OV-3
OVCAR-3 = tested on: OVCAR-3
NCI-H522 = tested on: NCI-H522
KM12 = tested on: KM12
SF-295 = tested on: SF-295
SF-268 = tested on: SF-268
UO-31 = tested on: UO-31
SK-MEL-28 = tested on: SK-MEL-28
EKVX = tested on: EKVX
HCC 2998 = tested on: HCC 2998

Measured: GI50

COc1cc2c(cc1OC)C1(COc3cc(O)c(O)c(O)c3C1=O)C2 (stereo not drawn)
inactive: RPMI-8226 > 50 µM | SF-539 > 50 µM | OVCAR-4 > 50 µM | IGROV-1 > 50 µM | SNB-75 8.65 µM | Malme-3M > 50 µM | NCI-H23 45.4 µM | SN12C > 50 µM | K562 > 50 µM | HL-60 > 50 µM | SK-OV-3 > 50 µM | OVCAR-3 > 50 µM | NCI-H522 > 50 µM | KM12 > 50 µM | SF-295 25.9 µM | SF-268 > 50 µM | UO-31 > 50 µM | SK-MEL-28 > 50 µM

CCOC(=O)Cc1cc(OC)c(OC)cc1/C(Cl)=C(\CO)c1ccc(OC)c(OC)c1
inactive: RPMI-8226 37.5 µM | OVCAR-4 44.4 µM | IGROV-1 > 100 µM | SNB-75 23.8 µM | Malme-3M > 100 µM | NCI-H23 97.7 µM | SN12C > 100 µM | K562 > 100 µM | HL-60 > 100 µM | SK-OV-3 > 100 µM | OVCAR-3 57.7 µM | SF-295 39.8 µM | EKVX > 100 µM | UO-31 80.5 µM | SK-MEL-28 78 µM

O=c1c2cc(I)ccc2nc(-c2cccs2)n1O
inactive: HCC 2998 30 µM | RPMI-8226 27 µM | SF-539 44.6 µM | OVCAR-4 31.6 µM | IGROV-1 30.5 µM | NCI-H23 24.2 µM | SN12C 45 µM | K562 48.3 µM | HL-60 34.3 µM | OVCAR-3 15.6 µM | NCI-H522 37.5 µM | KM12 32.6 µM | SF-295 31.1 µM | EKVX 26.4 µM | SF-268 38.4 µM | UO-31 49 µM | SK-MEL-28 65.8 µM

CC(O)(P(=O)(O)O)P(=O)(O)OCC(O)CN1CCOCC1 (stereo not drawn)
inactive: HCC 2998 > 100 µM | RPMI-8226 > 100 µM | SF-539 95.1 µM | IGROV-1 > 100 µM | Malme-3M > 100 µM | NCI-H23 > 100 µM | K562 > 100 µM | HL-60 > 100 µM | SK-OV-3 > 100 µM | NCI-H522 > 100 µM | KM12 > 100 µM | SF-295 > 100 µM | EKVX > 100 µM | SF-268 > 100 µM | UO-31 > 100 µM | SK-MEL-28 > 100 µM

CCc1ncc(C(C)(O)c2ccccc2)n1Cc1ccccc1 (stereo not drawn)
inactive: RPMI-8226 32.3 µM | SF-539 37.2 µM | OVCAR-4 35.8 µM | IGROV-1 42.4 µM | SNB-75 48.6 µM | Malme-3M 41 µM | NCI-H23 5.56 µM | SN12C 21.7 µM | K562 33.4 µM | SK-OV-3 67.6 µM | OVCAR-3 40.6 µM | NCI-H522 42.1 µM | KM12 31 µM | SF-295 > 100 µM | EKVX 56.2 µM | SF-268 99.8 µM | UO-31 55.1 µM | SK-MEL-28 33.4 µM

CN(C)CCCNC(=S)S
inactive: RPMI-8226 > 100 µM | SF-539 > 100 µM | OVCAR-4 > 100 µM | IGROV-1 > 100 µM | Malme-3M > 100 µM | NCI-H23 > 100 µM | SN12C > 100 µM | K562 > 100 µM | HL-60 > 100 µM | SK-OV-3 > 100 µM | OVCAR-3 > 100 µM | NCI-H522 > 100 µM | KM12 > 100 µM | SF-295 > 100 µM | EKVX > 100 µM | SF-268 > 100 µM | SK-MEL-28 > 100 µM

C=CCCON(C(=O)OC(C)(C)C)c1ccccc1
inactive: RPMI-8226 6.44 µM | SF-539 > 100 µM | IGROV-1 > 100 µM | SNB-75 82.6 µM | Malme-3M 20 µM | NCI-H23 > 100 µM | SN12C > 100 µM | K562 > 100 µM | HL-60 12.4 µM | SK-OV-3 > 100 µM | OVCAR-3 > 100 µM | NCI-H522 43.3 µM | KM12 > 100 µM | SF-295 > 100 µM | EKVX > 100 µM | SF-268 > 100 µM | UO-31 > 100 µM | SK-MEL-28 > 100 µM

COc1ccc(NC(=O)C(=O)NNC(=O)c2sc(NNC(C)=O)nc2C)c([N+](=O)[O-])c1
inactive: HCC 2998 > 100 µM | RPMI-8226 65.9 µM | SF-539 > 100 µM | OVCAR-4 51.5 µM | IGROV-1 > 10 µM | Malme-3M > 100 µM | NCI-H23 > 100 µM | SN12C > 100 µM | K562 37.1 µM | HL-60 42.7 µM | SK-OV-3 > 100 µM | OVCAR-3 33.5 µM | NCI-H522 30.1 µM | KM12 > 100 µM | SF-295 > 100 µM | EKVX > 100 µM | SF-268 51.8 µM | UO-31 > 100 µM | SK-MEL-28 > 100 µM
